According to patent US20060194782A1, “Pharmacologically active imidazo[4,5-c] pyridines” (Altana Pharma AG, priority 2003, published 2006):

Legend:
[1] = tested on: pentagastrin-stimulated acid secretion of the perfused rat stomach; assay: Pentagastrin-stimulated acid secretion of the perfused rat stomach after intraduodenal administration; type: in vivo; conditions: anesthetized CD rat, dose 1.0 μmol/kg i.d.
Description: Testing of the Secretion on the Perfused Rat Stomach
In Table A which follows, the influence of the compounds of the formula 1 according to aspect 3 of the invention on the pentagastrin-stimulated acid secretion of the perfused rat stomach after intraduodenal
The abdomen of anesthetized rats(CD rat, female, 200-250 g; 1.5 g/kg i.m. urethane) was opened after tracheotomy by a median upper abdominal incision and a PVC catheter was fixed transorally in the esophagus and another via the pylorus such that the ends of the tubes just projected into the gastric lumen. The catheter leading from the pylorus led outward into the right abdominal wall through a side opening.
After thorough rinsing (about 50-100 ml), warm (37° C.) physiological NaCl solution was continuously passed through the stomach (0.5 ml/min, pH 6.8-6.9; Braun-Unita I). The pH (pH meter 632, glass electrode EA 147; φ=5 mm, Metrohm) and, by titration with a freshly prepared 0.01 N NaOH solution to pH 7 (Dosimat 665 Metrohm), the secreted HCl were determined in the effluent in each case collected at an interval of 15 minutes.
The gastric secretion was stimulated by continuous infusion of 1 μg/kg (=1.65 ml/h) of i.v. pentagastrin (left femoral vein) about 30 min after the end of the operation (i.e. after determination of 2 preliminary fractions). The substances to be tested were administered intraduodenally in a 2.5 ml/kg liquid volume 60 min after the start of the continuous pentagastrin infusion.
The body temperature of the animals was kept at a constant 37.8-38° C. by infrared irradiation and heat pads (automatic, stepless control by means of a rectal temperature sensor).

melting point | Structure (SMILES) | Inhibition of acid secretion [1] [%]
233 to 236 °C | CCc1cccc(C)c1CNc1nc(C(=O)O)cc2c1nc(C)n2C [Example 13, 4-(2-Ethyl-6-methyl-benzylamino)-1,2-dimethyl-1H-imidazo[4,5-c]pyridine-6-carboxylic Acid] | –
105 °C | CCc1cccc(C)c1CNc1nc(OCCOC)cc2c1nc(C)n2C [Example 14, (2-Ethyl-6-methyl-benzyl)-[6-(2-methoxy-ethoxy)-1,2-dimethyl-1H-imidazo[4,5-c]pyridin-4-yl]-amine] | –
157 to 160 °C | CCc1cccc(C)c1CNc1nc(C(=O)NC)cc2c1nc(C)n2C [Example 4, 4-(2-Ethyl-6-methyl-benzylamino)-1,2-dimethyl-1H-imidazo[4,5-c]pyridine-6-carboxylic Acid Methylamide] | >30
207 to 208 °C | CCc1cccc(C)c1CNc1nc(C(=O)N(C)C)cc2[nH]c(C)nc12 [Example 16, 4-(2-Ethyl-6-methyl-benzylamino)-2-methyl-1H-imidazo[4,5-c]pyridine-6-carboxylic Acid Dimethyl-amide] | >30
180 to 181 °C | Cc1nc2c(OCc3ccccc3Cl)nccc2n1C [Example 8, 4-(2-Chloro-benzyloxy)-1,2-dimethyl-1H-imidazo[4,5-c]pyridine] | –
264 to 266 °C | CCc1cccc(C)c1CNc1nc(C(N)=O)cc2c1nc(C)n2C [Example 3, 4-(2-Ethyl-6-methyl-benzylamino)-1,2-dimethyl-1H-imidazo[4,5-c]pyridine-6-carboxylic Acid Amide] | >30
115 to 116 °C | Cc1nc2c(OCc3ccccc3)nccc2n1C [Example 7, 4-Benzyloxy-1,2-dimethyl-1H-imidazo[4,5-c]pyridine] | –
106 to 107 °C | CCc1cccc(C)c1CNc1nc(OC)cc2c1nc(C)n2C [Example 15, (2-Ethyl-6-methyl-benzyl)-(6-methoxy-1,2-dimethyl-1H-imidazo[4,5-c]pyridin-4-yl)-amine] | –
208 to 209 °C | CCc1cccc(C)c1CNc1nc(C(=O)NCCO)cc2c1nc(C)n2C [Example 5, 4-(2-Ethyl-6-methyl-benzylamino)-1,2-dimethyl-1H-imidazo[4,5-c]pyridine-6-carboxylic Acid (2-Hydroxy-ethyl)-amide] | –
> 111 °C (dec.) | CCOC(=O)c1cc2c(nc(C)n2C)c(NCc2c(C)cccc2CC)n1 [Example 12, 4-(2-Ethyl-6-methyl-benzylamino)-1,2-dimethyl-1H-imidazo[4,5-c]pyridine-6-carboxylic Acid Ethyl Ester] | –
204 to 206 °C | CCc1cccc(C)c1CNc1nc(C(=O)N(C)C)cc2c1nc(C)n2C [Example 2, 4-(2-Ethyl-6-methyl-benzylamino)-1,2-dimethyl-1H-imidazo[4,5-c]pyridine-6-carboxylic Acid Dimethylamide] | >30
141 to 142 °C | CCc1cccc(C)c1NCc1nccc2c1nc(C)n2C [Example 1, (1,2-Dimethyl-1H-imidazo[4,5-c]pyridin-4-ylmethyl)-(2-ethyl-6-methyl-phenyl)-amine] | –
164 to 165 °C | Cc1nc2c(OC3CCc4ccccc43)nccc2n1C (centres unmarked) [Example 10, 4-(Indan-1-yloxy)-1,2-dimethyl-1H-imidazo[4,5-c]pyridine] | –
